This is an account of results in PubChem BioAssay (NCI).

The structures appear in SMILES notation.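 Results reflect a 48-hour exposure of cells in 96-well plates to compound at five concentrations. The concentration for full growth arrest is given as TGI.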

Holding throughout (experiment): NCI tumour cell line growth inhibition, 48 h
Assay [1] concerns A549 NSCLC.
Assay [2] concerns CAKI-1 renal.
The subject of assay [3] is HS 578T breast.
Assay [4] concerns M14 melanoma.
Assay [5] has as its system MOLT-4 leukemia.
Assay [6] deals with NCI-H226 lung.
Assay [7] has as its system NCI-H460 lung.
For assay [8], the system named is SK-OV-3 ovarian.
The test system of assay [9] is UO-31 renal.
Assay [10] deals with M19-MEL melanoma.
The subject of assay [11] is SNB-78 CNS.

`O=C(C/C(=N/O)C(F)(F)F)c1cccs1`: the TGI in [1], in assay [2], in [3], in assay [4], in assay [5] and in [6] was above 100 µM throughout. Also, the TGI in assay [7], in assay [8] and in [9] was above 100 µM in each case.

As to `N/C(=N\Nc1ccc(Cl)cc1)c1cnccn1`, the TGI in assay [1], in [2], in [3], in assay [4], in [5] and in assay [6] was above 100 µM throughout. Further, the TGI in assay [7], in assay [8] and in assay [9] was above 100 µM each time.

For `CN(O)C(=O)CCCC(=O)NCC(C)(C)CNC(=O)CCCC(=O)N(C)O`, the TGI in assay [1], in [2], in [3], in [4], in assay [5] and in assay [6] was above 100 µM in each case. Further, the TGI in assay [7], in assay [8] and in assay [9] was above 100 µM each time.

Consider `Nn1c(=O)[nH]c2ncn(Cc3ccccc3)c2c1=O`, for which the TGI in [1], in [2], in [3], in [4], in assay [5] and in [6] was above 100 µM each time. Moreover, the TGI in assay [7], in assay [8] and in assay [9] was above 100 µM each time.

On to `O=C1CC(=O)NC(=NN2C(=O)CSC2C(=O)c2ccco2)N1` (stereo unspecified), for which the TGI in [1], in [2], in assay [3], in assay [4], in assay [5] and in assay [6] was above 100 µM throughout. The TGI in assay [7], in [8] and in assay [9] was above 100 µM in each case.

As for `S=c1nc(N/N=C/c2cccs2)c2cn[nH]c2[nH]1`, the TGI in assay [1] is 14.5 µM; in assay [2], 42.9 µM; in assay [3], above 100 µM; in assay [4], above 100 µM; in assay [5], 66 µM; in assay [6], above 100 µM. Also, the TGI is 13.1 µM in [7], above 100 µM in [8] and above 100 µM in assay [9].

Take `CCN(CC)c1ccc(/C=C2\CCc3ccc([N+](=O)[O-])cc3C2=O)cc1`: the TGI in assay [1], in assay [2], in assay [3], in assay [4], in [5] and in assay [6] was above 100 µM in each case. The TGI in assay [7] is above 48.9 µM; in assay [8], above 100 µM; in assay [9], above 100 µM.

As to `COc1cccc2cc(C(=O)Nc3ccccc3)c(=N)oc12`, the TGI in [1] is above 100 µM; in assay [2] it was above 100 µM; in assay [3], above 84.7 µM; in assay [4] it was above 100 µM; in assay [5], above 100 µM; in assay [6] it was above 100 µM. Moreover, the TGI in [7], in assay [8] and in [9] was above 100 µM throughout.

For the molecule `C=CCOC(=O)N1c2ccc(O)cc2[C@@]23O[C@@]24[C@@H]1C#C/C=C\C#C[C@]3(O)C(OC)(OC)C[C@@H]4C`, the TGI in assay [1] is above 100 µM; in assay [2] it was above 100 µM; in assay [3], 90.9 µM; in [4] it was 79.9 µM; in assay [5] it was above 100 µM; in [6] it was 74.3 µM. In addition, the TGI in assay [7] was 83.3 µM; in assay [8], above 100 µM; in [9], above 100 µM.

For `Cc1cc2c(cc1C)C(=O)C1(C2)Cc2cc3c(cc2C1=O)CCC3` (stereo unspecified), the TGI in [1], in [2], in assay [3], in assay [4], in [5] and in assay [6] was above 100 µM in each case. Besides, the TGI in assay [7], in [8] and in assay [9] was above 100 µM each time.

Take `COc1ccc(-c2ncn(C[Si](C)(C)C)c2-c2ccc(OC)cc2)cc1`: the TGI came out at 27.2 µM in [1]; 21.9 µM in [2]; 37.1 µM in assay [3]; 14.8 µM in [4]; 4.22 µM in assay [5]; 24.5 µM in assay [6]. Further, the values for the TGI in assay [7], in assay [8] and in assay [9] were 15.3 µM, 36.9 µM and 10 µM, respectively.

As for `CNC(=O)SCC(NC(=O)CCC(N)C(=O)O)C(=O)NCC(=O)O` (stereo unspecified), the TGI in assay [1], in assay [2], in [10], in assay [5], in assay [6] and in assay [7] was above 100 µM in each case. Further, the TGI in assay [8], in assay [11] and in assay [9] was above 100 µM throughout.

In the case of `C=CC(C)C1(CCCOCc2ccccc2)C(=S)N2CCC3(CC24CCCC14)OCCO3` (stereo unspecified), the TGI in assay [1], in assay [2], in assay [10], in [5], in [6] and in assay [7] was above 100 µM throughout. In addition, the TGI in assay [8], in assay [11] and in [9] was above 100 µM in each case.

In the case of `CCCCc1ccc(Nc2nc(Cl)c3ccn(C4CC(Oc5ccc(C)cc5)C(COc5ccc(C)cc5)O4)c3n2)cc1` (stereo unspecified), the TGI in [1] was above 46.4 µM; in assay [2] it was above 46.4 µM; in [3], above 100 µM; in assay [4] it was above 46.4 µM; in assay [5], above 46.4 µM; in [6] it was above 46.4 µM. Also, the figures for the TGI in assay [7], in [8] and in assay [9] were above 31.6 µM, above 46.4 µM and 31.2 µM, respectively.
